Data reported in patent US11046716B2, “Beta-lactamase inhibitors” (priority 2015, dated 2021).

Legend:
VIM-2 = biological target: T1, VIM-2 (Escherichia coli, UniProt Q5U7L7); test: β-lactamase enzyme inhibition assay, VIM-2 (nitrocefin substrate); assay type: biochemical; details: Class B; nitrocefin substrate, 486 nm; read-out: VIM-2
T1 construct: made in house; host or cells: E. coli BL21(DE3)
Experimental: For Vim-2 metallo β-lactamase, the procedure was identical with the following exceptions, first the protein was not pH adjusted to pH 5 with 50 mM sodium acetate, second, the chromatography step was changed to a 5 ml Q sepharose anion exchange column pre-equilibrated with 50 mM Hepes pH 7.5, and elution of the protein was achieved by a linear gradient of NaCl (0-600 mM). Finally, the VIM-2 purification required a second run (3rd step) on the Q sepharose anion exchange column to achieve acceptable purity (>90%).
(§1) An equal volume of diluted enzyme stock was added, and the plates were incubated at 37° C. for 15 min. Nitrocefin was used as substrate for p99 AmpC, VIM-2 and OXA-1 and dispensed into each well at a final concentration of 100 μM. Absorbance at 486 nm was immediately monitored for 10 min using a Biotek Powerwave XS2 microplate spectrophotometer using the GEN5 software package (Biotek Instruments, Winooski Vt.). In an analogous fashion, imipenem was used as substrate for Kpc-2 and Cefotaxime was used for SHV-5, while changes in absorbance upon hydrolysis of the β-lactam ring were monitored at 300 nm and 260 nm respectively in UV-transparent 96-well microtiter assay plates. Maximum rates of hydrolysis were compared to those in control wells (without inhibitors), and percentages of enzyme inhibition were calculated for each concentration of inhibitor. The concentration of inhibitor needed to reduce the initial rate of hydrolysis of substrate by 50% (IC50) was calculated as the residual activity of β-lactamase at 486 nm using GraFit version 7 kinetics software package (Erithacus Software, Surrey, UK).
(§2) Using the methodology described above, examples of the current invention were evaluated for their ability to inhibit β-lactamase enzymes from all four Ambler classifications (A through D). […] NT=Not tested.

[1] = tested on: K. pneumoniae producing the Class D carbapenemase OXA-48; test: Broth microdilution MIC assay with meropenem, K. pneumoniae OXA-48; assay type: cell-based; details: Fixed Mero (meropenem) 4 μg/mL; K. p. 11978 OXA-48
Excerpt: (§3) To determine the ability of test compounds to potentiate the inhibition of the growth of bacterial strains that produce beta-lactamase enzymes in the presence of a β-lactam antibiotic, classic cell based broth microdilution MIC assays were employed. Six bacteria strains producing beta-lactamase enzymes were used: E. coli expressing the Class A Extended Spectrum Beta-Lactamase (ESBL) CTX-M-15, E. cloacae expressing the Class C P99, K. pneumoniae expressing the Class A carbapenemase KPC-2, P. aeruginosa expressing the Class B carbapenemase VIM-2, K. pneumoniae expressing the class A carbapenemase KPC-2 and the class B carbapenemase VIM-4, and K. pneumoniae producing the Class D carbapenemase OXA-48. The assay was conducted in Cation Adjusted Mueller Hinton Broth (CAMHB, BD #212322, BD Diagnostic Systems, Sparks, Md.). Bacteria strains were grown for 3-5 hours in CAMBH broth. Test compounds (Examples 1-94) were added to a microtiter plate in 2-fold serial dilutions in CAMHB in a final concentration range of 16 μg/mL to 0.125 μg/ml. An overlay of CAMHB containing a Beta-lactam was added to the compounds at a final static concentration of 4 μg/ml. […] In addition to the titration of test compounds the MICs of a panel of control beta-lactams is also tested to ensure the strains are behaving consistently from test to test. Once the test compound and antibiotics are added the plates can be inoculated according to CLSI broth microdilution method. After inoculation the plates are incubated for 16-20 hours at 37° C. then the Minimal Inhibitory Concentration (MIC) of the test compound is determined visually.
(§4) Using the methodology described above, examples of the current invention were evaluated for their ability to inhibit the growth of β-lactamase-producing bacteria in the presence of a β-lactam antibiotic.

OXA-48 = OXA-48 (UniProt Q6XEC0); test: β-lactamase enzyme inhibition assay, Class D oxacillinase; assay type: biochemical; details: read-out: OXA-48
[2] = tested on: K. pneumoniae expressing the class A carbapenemase KPC-2 and the class B carbapenemase VIM-4; test: Broth microdilution MIC assay with meropenem, K. pneumoniae KPC-2 and VIM-4; assay type: cell-based; details: Fixed Mero (meropenem) 4 μg/mL; K. p. A-1797 KPC-2 VIM-4
Excerpt: as §3, §4

[3] = tested on: E. coli expressing the Class A Extended Spectrum Beta-Lactamase (ESBL) CTX-M-15; test: Broth microdilution MIC assay with ceftazidime, E. coli CTX-M-15; assay type: cell-based; details: Fixed CAZ (ceftazidime) 4 μg/mL; E. coli ESBL4 CTX-M-15
Excerpt: as §3, §4

AmpC = biological target: T2, AmpC (Enterobacter cloacae, UniProt P05364); test: β-lactamase enzyme inhibition assay, p99 AmpC (nitrocefin substrate); assay type: biochemical
T2 construct: made in house; host or cells: E. coli BL21(DE3)
Experimental: (§5) For SHV-5, Kpc-2, p99AmpC and OXA-1 β-lactamases, E. coli BL21(DE3) bacterial cells carrying expression plasmids (expressed as native untagged proteins) for the individual β-lactamases were grown in 1 L of Superbroth (Teknova Inc. Hollister, Calif.) supplemented with 100 μg/ml kanamycin selection and 1×5052 (0.5% glycerol, 0.05% glucose and 0.2% α-lactose) at 35° C. for 18-20 hours. Cells were harvested by centrifugation (4,000×g, 4° C., 20 min), resuspended in 50 ml of 10 mM HEPES pH 7.5 ( 1/20 of the initial volume). The cells were lysed by sonication (5 pulses of 45 seconds) at 45 W on ice. The lysates were clarified by centrifugation at 10,000×g for 40 minutes at 4° C. Samples were diluted 5-fold in 50 mM sodium acetate pH 5.0, stored overnight at 4° C., after which they were centrifuged at 10,000×g for 30 minutes to clarify, and filtered through 0.45 μm filters. The samples were loaded onto a 5 ml Capto S sepharose cation exchange column (GE Healthcare) pre-equilibrated with 50 mM sodium acetate pH 5.0. The column was washed with 5 column volumes of 50 mM sodium acetate pH 5.0 to wash out unbound protein and a linear gradient of NaCl (0 to 500 mM) was used to elute the protein (over 16 CV) from the column. Fractions were assayed for β-lactamase activity using Centa (Calbiochem, Gibbstown, N.J.) or Nitrocefin (EMD Millipore chemicals, Darmstadt, Germany) as a reporter β-lactamase substrate for activity in the isolated fractions. Active fractions were pooled, concentrated and further purified by gel filtration chromatography on a Superdex 75 prep grade gel filtration column (GE Healthcare, Piscataway, N.J.) pre-equilibrated in 50 mM Hepes pH 7.5, 150 mM NaCl. Active fractions were pooled concentrated, quantitated by BCA protein determination (Thermo Scientific, Rockford, Ill.), dialyzed into PBS and frozen at −80° C. in 20% glycerol until use.
as §1, §2

SHV-5 = biological target: T3, SHV-5 (Klebsiella pneumoniae, UniProt P0A3M1); test: β-lactamase enzyme inhibition assay, SHV-5 (cefotaxime substrate); assay type: biochemical
T3 construct: made in house; host or cells: E. coli BL21(DE3)
Experimental: as §5, §1, §2

[4] = tested on: K. pneumoniae expressing the Class A carbapenemase KPC-2; test: Broth microdilution MIC assay with meropenem, K. pneumoniae KPC-2; assay type: cell-based; details: Fixed Mero (meropenem) 4 μg/mL; K. p. 156319 KPC-3
Excerpt: as §3, §4

KPC-2 = biological target: T4, KPC-2 (Klebsiella pneumoniae, UniProt Q9F663); test: β-lactamase enzyme inhibition assay, KPC-2 (imipenem substrate); assay type: biochemical; details: Class A; imipenem substrate, 300 nm; read-out: KPC-2
T4 construct: made in house; host or cells: E. coli BL21(DE3)
Experimental: as §5, §1, §2

[5] = tested on: E. cloacae expressing the Class C P99; test: Broth microdilution MIC assay with ceftazidime, E. cloacae P99; assay type: cell-based; details: Fixed CAZ (ceftazidime) 4 μg/mL; E. cl. 144200 p99 AmpC
Excerpt: as §3, §4

[6] = tested on: P. aeruginosa expressing the Class B carbapenemase VIM-2; test: Broth microdilution MIC assay with meropenem, P. aeruginosa VIM-2; assay type: cell-based; details: Fixed Mero (meropenem) 4 μg/mL; P. aerug. 2775 VIM-2
Excerpt: as §3, §4

T4 sequence (Q9F663 25-293, looked up): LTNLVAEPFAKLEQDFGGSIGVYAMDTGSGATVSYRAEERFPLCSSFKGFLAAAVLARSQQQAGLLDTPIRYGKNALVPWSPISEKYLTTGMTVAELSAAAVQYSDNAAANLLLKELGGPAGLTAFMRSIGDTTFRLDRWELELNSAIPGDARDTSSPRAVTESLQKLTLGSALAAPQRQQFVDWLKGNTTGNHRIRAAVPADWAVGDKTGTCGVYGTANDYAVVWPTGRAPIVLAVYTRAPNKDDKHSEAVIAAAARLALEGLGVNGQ
T2 sequence (P05364 21-381): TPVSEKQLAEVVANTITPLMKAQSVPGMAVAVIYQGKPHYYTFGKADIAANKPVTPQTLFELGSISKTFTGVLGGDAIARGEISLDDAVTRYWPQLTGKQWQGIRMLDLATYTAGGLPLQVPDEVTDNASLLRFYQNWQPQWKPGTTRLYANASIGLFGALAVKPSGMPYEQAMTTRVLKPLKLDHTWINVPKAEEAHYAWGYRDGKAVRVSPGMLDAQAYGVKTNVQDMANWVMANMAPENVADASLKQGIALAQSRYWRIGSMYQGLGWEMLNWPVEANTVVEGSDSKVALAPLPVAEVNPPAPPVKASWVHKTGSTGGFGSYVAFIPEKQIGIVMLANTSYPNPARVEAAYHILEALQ
T3 sequence (P0A3M1 22-286): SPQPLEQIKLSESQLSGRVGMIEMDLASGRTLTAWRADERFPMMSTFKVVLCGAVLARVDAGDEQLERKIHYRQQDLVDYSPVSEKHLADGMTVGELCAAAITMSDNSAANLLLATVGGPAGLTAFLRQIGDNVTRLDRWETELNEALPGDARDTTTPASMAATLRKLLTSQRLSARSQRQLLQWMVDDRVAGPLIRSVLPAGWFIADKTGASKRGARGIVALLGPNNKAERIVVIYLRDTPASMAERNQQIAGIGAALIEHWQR

Structure (SMILES)	IC50 (VIM-2) [nM]	MIC (μg/mL) of Exemplary Compounds in presence of fixed β-lactams: K. p. 11978 OXA-48 [1]	IC50 (OXA-48) [nM]	MIC (μg/mL) of Exemplary Compounds in presence of fixed β-lactams: K. p. A-1797 KPC-2 VIM-4 [2]	MIC (μg/mL) of Exemplary Compounds in presence of fixed β-lactams: E. coli ESBL4 CTX-M-15 [3]	IC50 (AmpC) [nM]	IC50 (SHV-5) [nM]	MIC (μg/mL) of Exemplary Compounds in presence of fixed β-lactams: K. p. 156319 KPC-3 [4]	IC50 (KPC-2) [nM]	MIC (μg/mL) of Exemplary Compounds in presence of fixed β-lactams: E. cl. 144200 p99 AmpC [5]	MIC (μg/mL) of Exemplary Compounds in presence of fixed β-lactams: P. aerug. 2775 VIM-2 [6]
O=C(Cn1cc(-c2ccccn2)nn1)N[C@H]1Cc2cccc(C(=O)O)c2OB1O [Example 10, (R)-2-hydroxy-3-(2-(4-(pyridin-2-yl)-1H-1,2,3-triazol-1-yl)acetamido)-3,4-dihydro-2H-benzo[e][1,2]oxaborinine-8-carboxylic acid]	1000 to 10000	B (B represents an MIC between 1 and 16 μg/mL inclusive)	< 100	A (A represents an MIC>16 μg/mL)	C (C represents an MIC of <1 μg/mL)	< 100	< 100	B (B represents an MIC between 1 and 16 μg/mL inclusive)	< 100	C (C represents an MIC of <1 μg/mL)	
NCc1nnnn1CC(=O)N[C@H]1Cc2cccc(C(=O)O)c2OB1O [Example 17, (R)-3-(2-(5-(aminomethyl)-1H-tetrazol-1-yl)acetamido)-2-hydroxy-3,4-dihydro-2H-benzo[e][1,2]oxaborinine-8-carboxylic acid]	< 100	B (B represents an MIC between 1 and 16 μg/mL inclusive)	100 to 1000	B (B represents an MIC between 1 and 16 μg/mL inclusive)	C (C represents an MIC of <1 μg/mL)			B (B represents an MIC between 1 and 16 μg/mL inclusive)	< 100	C (C represents an MIC of <1 μg/mL)	C (C represents an MIC of <1 μg/mL)
O=C(Cn1cncn1)N[C@H]1Cc2cccc(C(=O)O)c2OB1O [Example 18, (R)-3-(2-(1H-1,2,4-triazol-1-yl)acetamido)-2-hydroxy-3,4-dihydro-2H-benzo[e][1,2]oxaborinine-8-carboxylic acid]	100 to 1000	B (B represents an MIC between 1 and 16 μg/mL inclusive)	1000 to 10000	B (B represents an MIC between 1 and 16 μg/mL inclusive)	C (C represents an MIC of <1 μg/mL)			C (C represents an MIC of <1 μg/mL)	< 100	C (C represents an MIC of <1 μg/mL)	B (B represents an MIC between 1 and 16 μg/mL inclusive)
Cc1nnn(CC(=O)N[C@H]2Cc3cccc(C(=O)O)c3OB2O)c1CN [Example 120, (R)-3-(2-(5-(aminomethyl)-4-methyl-1H-1,2,3-triazol-1-yl)acetamido)-2-hydroxy-3,4-dihydro-2H-benzo[e][1,2]oxaborinine-8-carboxylic acid]	< 100	B (B represents an MIC between 1 and 16 μg/mL inclusive)	< 100	B (B represents an MIC between 1 and 16 μg/mL inclusive)	C (C represents an MIC of <1 μg/mL)	< 100	100 to 1000	B (B represents an MIC between 1 and 16 μg/mL inclusive)	< 100	C (C represents an MIC of <1 μg/mL)	
